Laboratory results: a melting point compilation (Tetko et al.)

Question: With `Cc1cc(C)n(-c2ccc(C(F)(F)F)cc2N)n1` as the compound, how does the melting point read?
Answer: 85 to 87 °C

Question: With `O=C1COc2cc(NC(=O)OCC(F)(F)F)c(Cl)cc2N1` as the compound, how does the melting point read?
Answer: 227 to 229 °C

Question: For `COc1cc(N)c(C(=O)O)cc1OC(F)F`, which melting point is on record?
Answer: 168 to 170 °C

Question: Which melting point does the source give for `O=C1OCCc2cc3c(=O)[nH]c(=O)[nH]c3nc21` here?
Answer: 380 to 382 °C

Question: Which melting point does the source give for `NC(=O)Nc1cccc(F)c1C(=O)O` here?
Answer: 149 to 151 °C

Question: Which melting point does the source give for `O=C(Cc1ccccc1F)N1CCNCC1` here?
Answer: 77 to 79 °C

Question: Which melting point does the source give for `O=C(O)CCCc1ccccc1Br` here?
Answer: 87 to 89 °C

Question: For `N#Cc1ccc(NCCC(N)=O)c(F)c1`, which melting point is on record?
Answer: 156 to 158 °C

Question: Which melting point does the source give for `Cc1ccc(-c2ccccc2C(=O)O)cc1` here?
Answer: 146 to 148 °C

Question: For `Cc1ccc(F)c(NC(=S)NN)c1`, which melting point is on record?
Answer: 133 to 135 °C

Question: Which melting point does the source give for `CC(C)(C)OC(=O)Nc1ccc(Cc2nc(C(=O)O)cs2)cc1` here?
Answer: 164 to 166 °C

Question: Which melting point does the source give for `O=C(O)C1CCc2nnc(C(F)F)n2C1` (configuration not stated) here?
Answer: 215 to 217 °C

Question: With `CN(C)S(=O)(=O)Nc1ccccc1Br` as the compound, how does the melting point read?
Answer: 78 to 80 °C

Question: Which melting point does the source give for `Cc1c(C)n(CCc2ccccn2)c2[nH]cnc(=N)c12` here?
Answer: 132 to 134 °C

Question: With `Cc1n[nH]c2ncc([N+](=O)[O-])cc12` as the compound, how does the melting point read?
Answer: 189 to 191 °C

Question: With `CCOC(=O)c1c(N)sc2c1CCN(C(=O)OCC)C2` as the compound, how does the melting point read?
Answer: 145 to 147 °C

Question: Which melting point does the source give for `Cc1cc(Cl)nc(-c2ccncc2)n1` here?
Answer: 119 to 121 °C

Question: With `O=Cc1ccc(-c2ccc(Br)cc2)s1` as the compound, how does the melting point read?
Answer: 110 to 112 °C

Question: Which melting point does the source give for `CCCC(NC(N)=O)C(=O)O` (configuration not stated) here?
Answer: 170 to 172 °C

Question: For `O=Cc1ccc(Cl)c2cccnc12`, which melting point is on record?
Answer: 132 to 134 °C

Question: With `O=CN1CCN(C(=NS(=O)(=O)c2ccccc2)C(F)(F)F)CC1` as the compound, how does the melting point read?
Answer: 114 to 116 °C

Question: Which melting point does the source give for `Cc1ccc(S(=O)(=O)Cl)c(C)c1C(=O)O` here?
Answer: 147 to 149 °C

Question: Which melting point does the source give for `COc1cc(C=O)c([N+](=O)[O-])cc1OCC(=O)O` here?
Answer: 179 to 181 °C

Question: With `COC(=O)c1coc(-c2cccc(C#N)c2)n1` as the compound, how does the melting point read?
Answer: 183 to 185 °C

Question: For `CCc1nnc(S)n1C`, which melting point is on record?
Answer: 138 to 140 °C

Question: With `Cn1c(=O)c2[nH]c(S)nc2n(C)c1=O` as the compound, how does the melting point read?
Answer: 328 to 330 °C

Question: With `CC(C)n1[nH]c(-c2ccccc2)cc1=N` as the compound, how does the melting point read?
Answer: 83 to 85 °C

Question: For `Cc1nn(-c2ccc(F)cc2F)c(C)c1C(=O)O`, which melting point is on record?
Answer: 229 to 231 °C

Question: For `CC(=O)c1cccc(S(=O)(=O)N2CCOCC2)c1`, which melting point is on record?
Answer: 142 to 144 °C

Question: For `COc1ccc(CCC(=O)O)c(OC)c1OC`, which melting point is on record?
Answer: 73 to 75 °C

Question: With `Cc1cc(N)ccc1N1C(=O)CCC1=O` as the compound, how does the melting point read?
Answer: 167 to 169 °C

Question: With `CC(C)Cn1ncnc1CO` as the compound, how does the melting point read?
Answer: 92 to 94 °C

Question: Which melting point does the source give for `NC(COC1CCOCC1)=NO` here?
Answer: 79 to 81 °C

Question: For `Cc1cc(=O)c(C(=O)O)nn1-c1ccccc1C(F)(F)F`, which melting point is on record?
Answer: 145 to 147 °C

Question: With `CCOc1ccccc1-n1nnnc1S` as the compound, how does the melting point read?
Answer: 53 to 55 °C

Question: For `O=C(O)c1cc(S(=O)(=O)Cl)c(Cl)cc1F`, which melting point is on record?
Answer: 144 to 146 °C

Question: Which melting point does the source give for `O=c1[nH]c2ccccc2c(O)c1[N+](=O)[O-]` here?
Answer: 209 to 211 °C

Question: With `O=C(O)COc1ccc(F)c(Cl)c1` as the compound, how does the melting point read?
Answer: 106 to 108 °C

Question: With `c1ccc(NCc2cccc3ccccc23)cc1` as the compound, how does the melting point read?
Answer: 54 to 56 °C

Question: With `COc1ccc2c(c1)c(C(=O)O)c(C)n2Cc1ccccc1` as the compound, how does the melting point read?
Answer: 209 to 211 °C

Question: Which melting point does the source give for `CN(C)CC(N)=NO` here?
Answer: 135 to 137 °C

Question: Which melting point does the source give for `OCc1ccc2cn[nH]c2c1` here?
Answer: 158 to 160 °C

Question: Which melting point does the source give for `Cn1nc(SCC(=O)O)c(=O)n(C)c1=O` here?
Answer: 185 to 187 °C

Question: With `Cc1sc(C(=O)O)cc1S(N)(=O)=O` as the compound, how does the melting point read?
Answer: 249 to 251 °C

Question: Which melting point does the source give for `Cc1ccc(C(=O)Nc2ccccc2N)cc1` here?
Answer: 154 to 156 °C

Question: With `O=C(O)c1cc(Cl)cc(Cl)c1I` as the compound, how does the melting point read?
Answer: 173 to 175 °C

Question: For `Cc1nc(Cl)c2c(-c3ccccc3)c(C)sc2n1`, which melting point is on record?
Answer: 60 to 62 °C

Question: Which melting point does the source give for `O=S(=O)(Cl)c1ccc(S(=O)(=O)N2CCCCC2)cc1` here?
Answer: 151 to 153 °C

Question: Which melting point does the source give for `NCC(O)CN1CCOCC1` (configuration not stated) here?
Answer: 36 to 40 °C

Question: With `CC(C(=O)O)c1ccc(N(C)C)cc1` (configuration not stated) as the compound, how does the melting point read?
Answer: 128 to 130 °C

Question: With `CC(O)Cc1cc(F)cc(Br)c1` (configuration not stated) as the compound, how does the melting point read?
Answer: 39 to 41 °C

Question: Which melting point does the source give for `O=S(=O)(Cl)c1cncc(F)c1` here?
Answer: 35 to 37 °C

Question: Which melting point does the source give for `O=S1(=O)CCN(S(=O)(=O)Cl)CC1` here?
Answer: 177 to 179 °C

Question: For `Cc1ccc(-c2nnc(N)s2)c(C)c1`, which melting point is on record?
Answer: 180 to 182 °C

Question: For `NC(CC(=O)O)c1cccs1` (configuration not stated), which melting point is on record?
Answer: 219 to 221 °C

Question: Which melting point does the source give for `Cc1cc([N+](=O)[O-])cc(S(=O)(=O)Cl)c1C` here?
Answer: 66 to 68 °C

Question: Which melting point does the source give for `C#CCn1cnc(-c2ccccc2)c1N` here?
Answer: 126 to 128 °C

Question: With `CC(C)CC1CC(=O)NC(=O)C1` as the compound, how does the melting point read?
Answer: 136 to 138 °C

Question: With `O=C(CCl)Nc1ccc(S(=O)(=O)N2CCCC2)cc1` as the compound, how does the melting point read?
Answer: 185 to 187 °C

Question: For `C=CCNc1ccc(C(F)(F)F)cc1C#N`, which melting point is on record?
Answer: 54 to 56 °C

Question: Which melting point does the source give for `COc1ccc(NC(=O)CC#N)cc1Cl` here?
Answer: 110 to 112 °C

Question: With `O=C(O)c1c[nH]nc1-c1ccc(F)cc1` as the compound, how does the melting point read?
Answer: 302 to 304 °C

Question: For `COCCC(=O)Nc1ccc(F)cc1C(=O)O`, which melting point is on record?
Answer: 110 to 112 °C

Question: Which melting point does the source give for `CC(=O)Nc1cccc(F)c1C(=O)O` here?
Answer: 202 to 204 °C

Question: Which melting point does the source give for `O=C(O)c1ccc(Br)nn1` here?
Answer: 140 to 142 °C

Question: Which melting point does the source give for `CCOC(=O)c1ccn(C)c(=O)c1` here?
Answer: 91 to 93 °C

Question: Which melting point does the source give for `Cc1ccc(-c2noc(CCC(=O)O)n2)cc1` here?
Answer: 143 to 145 °C

Question: For `N#Cc1ccc(Cl)cc1S(=O)(=O)Cl`, which melting point is on record?
Answer: 79 to 81 °C

Question: Which melting point does the source give for `Cc1c(Br)cc(C(=O)O)cc1[N+](=O)[O-]` here?
Answer: 183 to 185 °C

Question: For `O=Cc1cc(Br)ccc1OCc1ccccc1`, which melting point is on record?
Answer: 61 to 63 °C

Question: With `O=c1oc2cc(O)ccc2c2c1CCC2` as the compound, how does the melting point read?
Answer: 214 to 216 °C

Question: Which melting point does the source give for `Nc1ccccc1S(=O)(=O)Nc1ccccc1` here?
Answer: 118 to 120 °C

Question: With `CN(C)C(=S)Oc1cccc(C=O)c1` as the compound, how does the melting point read?
Answer: 65 to 67 °C

Question: Which melting point does the source give for `CCc1c(C)[nH]c2ccc(Oc3ccccc3)cc2c1=O` here?
Answer: 266 to 268 °C

Question: With `COCc1cccc2sc(N)nc12` as the compound, how does the melting point read?
Answer: 139 to 141 °C

Question: For `Cn1nnc(C(=O)O)c1C(F)(F)F`, which melting point is on record?
Answer: 114 to 116 °C

Question: With `CC(C)c1ccc2c(c1)C(=O)C(=O)N2` as the compound, how does the melting point read?
Answer: 93 to 95 °C

Question: With `Cc1cc(Br)c(O)c([N+](=O)[O-])c1` as the compound, how does the melting point read?
Answer: 84 to 86 °C

Question: For `CCn1c(C)nnc1S`, which melting point is on record?
Answer: 129 to 131 °C

Question: With `Cc1nc(NCCc2ccccc2)sc1C(=O)O` as the compound, how does the melting point read?
Answer: 170 to 172 °C

Question: With `CCCNc1ccc(Cl)cc1N` as the compound, how does the melting point read?
Answer: 62 to 64 °C

Question: Which melting point does the source give for `O=C(NO)c1ccccc1Br` here?
Answer: 182 to 184 °C

Question: With `O=C(OCc1ccccc1)N1CCc2n[nH]c(=O)cc2C1` as the compound, how does the melting point read?
Answer: 175 to 177 °C

Question: With `COc1cc(C=C2CCc3c2nc2ccccc2c3C(=O)O)cc(OC)c1OC` as the compound, how does the melting point read?
Answer: 246 to 248 °C

Question: For `Cc1ccc(S(=O)(=O)c2ccc(CBr)cc2)cc1`, which melting point is on record?
Answer: 137 to 139 °C

Question: With `Cc1ccc(-c2nnc(N)[nH]2)c(C)c1` as the compound, how does the melting point read?
Answer: 211 to 213 °C

Question: For `NC(=O)NCc1ccco1`, which melting point is on record?
Answer: 120 to 122 °C

Question: For `CS(=O)(=O)NCCC1CCCCN1` (configuration not stated), which melting point is on record?
Answer: 105 to 107 °C

Question: With `COC(=O)c1cc([N+](=O)[O-])ccc1N` as the compound, how does the melting point read?
Answer: 163 to 165 °C

Question: For `Cc1cc(CN2CCSCC2)ccc1N`, which melting point is on record?
Answer: 106 to 108 °C

Question: With `Cc1ccc(-n2ncc(Cl)c(Cl)c2=O)cc1Cl` as the compound, how does the melting point read?
Answer: 206 to 208 °C

Question: Which melting point does the source give for `Cc1cn(C2CC(O)C(CO)O2)c(=O)[nH]c1=O` (configuration not stated) here?
Answer: 187 to 189 °C

Question: For `Oc1ccc(Oc2ccncc2)cc1`, which melting point is on record?
Answer: 181 to 183 °C

Question: For `O=C(CCl)NC1CCOCC1`, which melting point is on record?
Answer: 82 to 84 °C

Question: For `O=C(CCl)NC(c1ccccc1)c1nccs1` (configuration not stated), which melting point is on record?
Answer: 108 to 110 °C

Question: For `CC(C)Cn1cc(C(F)F)c(C(=O)O)n1`, which melting point is on record?
Answer: 94 to 96 °C

Question: With `O=C(O)Cc1ccc(S(=O)(=O)CCO)cc1` as the compound, how does the melting point read?
Answer: 99 to 101 °C

Question: With `NS(=O)(=O)c1scnc1C(=O)O` as the compound, how does the melting point read?
Answer: 205 to 207 °C

Question: For `NC(=S)c1cccc(S(=O)(=O)NC2CCCCCCC2)c1`, which melting point is on record?
Answer: 124 to 126 °C

Question: With `O=C(CN1CCNCC1)N1CCCc2ccccc21` as the compound, how does the melting point read?
Answer: 64 to 66 °C

Question: Which melting point does the source give for `COc1ccc(-c2cc(CBr)on2)cc1` here?
Answer: 88 to 90 °C

Question: With `N#CCc1cccc(C(N)=O)c1` as the compound, how does the melting point read?
Answer: 157 to 159 °C
